Data taken from patent US4734280A, “Treatment or prevention of PAF Acether-induced maladies” (priority 1984, dated 1988).
≈ marks a conversion by molar mass, not a printed value. Like-named read-outs stand apart in the source and are kept apart here.

Key:
Hartley guinea-pig = assay: PAF Acether-induced bronchoconstriction in the anesthetized guinea-pig; type: in vivo; conditions: 1 mg/kg IV
Procedure: Method: (For details, see B. B. VARGAFTIG, J. LEFORT, F. WAL, M. CHIGNARD and M. C. MEDEIROS-Non-steroidal anti-inflammatory drugs of combined with anti-histamine and anti-serotonin agents interfere with the bronchial and platelet effects of PAF Acether-Enr. J. Pharm. (1982) 82 121-130). Male Hartley guinea-pig (400-500 g) were anesthetized with urethane 2 g/kg Ip., tracheotomised and ventilated by mean of a respiratory pump: 70-80 strokes mn, stroke volume 5 ml, a pneumothorax was done to abolish spontaneous respiration. The right jugular vein was catherized and used for injections.
The initial resistance was kept constant at 10 cm H2 O pressure according to the method of Konzett and Rossler and the overflowed airway was measured with a bronchospasm transducer UGO BASILE connected to a UGO BASILE recorder "GEMINI". Bronchial sensitivity of the animal was checked with acetylcholine (10-40 ng kg^-1 IV) and after constant response was obtained, there were injected, IV, first the propylene glycol and, five minutes later, 60 ng/kg of PAF Acether, which gave the control bronchoconstriction expressed as % of maximal bronchoconstriction given by clamping off the trachea. 40 minutes later, the tested compounds were administered by IV injection and, 5 minutes later, 60 ng/kg of PAF Acether by the same route. This experimentation was conducted on three batches of each 10 animals: first batch for Ginkgolide A, second one for Ginkgolide B and last one for Ginkgolide C, all at the 1 mg/kg dose. The figures of the following table are the average values for the 10 animals of each batch.

[1] = system: rabbit plasma-rich platelets (PRP); assay: Aggregation induced by other known aggregants (ADP, thrombine, calcium ionophore A 23187, collagen, adrenaline); type: cell-based; conditions: calcium ionophore A 23187, collagen and adrenaline
human platelets = assay: Ex vivo PAF Acether-induced PA in man after IV administration; conditions: IV 25 mg, PAF Acether 100 nM
Procedure: […] DMSO).
The same protocol described hereinabove for rabbit was used in man with only one dose of each Ginkgolide (IV 25 mg) and two blood takes (at 0.5 h and 1 h).

rat portal vein = assay: Isolated rat portal vein, PAF Acether-induced increase of basal tonus
Procedure: In vitro experiments were performed on isolated longitudinal strips of rat portal vein maintained in Krebs-Henseleit medium at 37° C. under an oxygen-rich gaseous circulation (95% O2 -5% CO2).
The preparations were allowed to equilibrate for 1 hour under isotonic conditions with 500 mg tension and rinced every 15 minutes. When myogenic activity was established, PAF Acether (10^-7 M) is added. It induced an increase of the basal tonus and frequency of the myogenic activity.

PAF-Acether receptor = target: T1, PAF-Acether receptor (Oryctolagus cuniculus, UniProt G1TEI7); assay: Competition with 3H-PAF Acether binding, rabbit membrane platelet preparation
T1 construct: using a rabbit membrane platelet preparation; from tissue; host or cells: rabbit platelets (membrane preparation)
T1 sequence (G1TEI7 1-342): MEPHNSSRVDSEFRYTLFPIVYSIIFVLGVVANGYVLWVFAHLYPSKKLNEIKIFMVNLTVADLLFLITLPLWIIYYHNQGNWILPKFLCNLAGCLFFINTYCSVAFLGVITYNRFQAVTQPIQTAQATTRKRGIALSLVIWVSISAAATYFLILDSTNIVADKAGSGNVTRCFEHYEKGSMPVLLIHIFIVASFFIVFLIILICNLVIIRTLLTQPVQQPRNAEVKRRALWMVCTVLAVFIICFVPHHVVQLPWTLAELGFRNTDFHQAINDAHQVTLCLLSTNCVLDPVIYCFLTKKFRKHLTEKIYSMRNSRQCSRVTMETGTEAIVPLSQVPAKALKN
Description: The competition of the alternative binding of either ^3 H-PAF Acether or one of the Ginkgolides was evidenced by radioactive determinations using a rabbit membrane platelet preparation. (100% control=^3 H-PAF Acether alone).

[2] = system: rabbit plasma-rich platelets (PRP); assay: Inhibition of PAF Acether-induced PA, rabbit PRP in vitro; type: cell-based; conditions: Oryctolagus cuniculus, Platelet, average of 10 assays, read-out: IC50 doses on PAF Acether-induced rabbit PA (PRP)
Procedure: (§1) The Inhibition of PAF Acether-induced PA has been studied on rabbit plasma-rich platelets (PRP). Two doses of PAF Acether were used (2.5 nM and 5 nM). The tested compound was added to the medium 3 minutes before PAF Acether and aggregation was followed by monitoring changes in electrical impedance (Whole-Blood aggregometer-chrono-Log); kadsurenone was simultaneously tested as reference compound and the IC50 molar doses of Ginkgolides A, B, C and M and of kadsurenone on PAF Acether-induced rabbit PA (PRP) have been calculated.
The results obtained are presented in the following table (average values for 10 assays for each dose) and FIG. 1: […]

human PRP = assay: Inhibition of PAF Acether-induced PA, human PRP in vitro; type: cell-based; conditions: PAF Acether 100 nM, read-out: IC Doses (PAF Acether-induced PA, human PRP)
Procedure: as §1
The inhibition of PAF Acether-induced PA has been studied on human PRP. The same protocol was used as for rabbit hereinabove.

thermal-injured patients = assay: Preliminary clinical trial in thermal-injured patients (open study); type: in vivo, human; conditions: perfusion 5 mg per hour for six hours then 2 mg per hour for 48 hours; 13 patients, burnt surface area >50%
Procedure: An open study has been performed on 13 thermal-injured patients (total burnt surface area >50%) treated by Ginkgolide B.
The Ginkgolide B was administered in a perfusion (5 mg per hour for six hours and then 2 mg per hour for the following 48 hours).

[3] = system: guinea-pig lung parenchymal strip; assay: PAF Acether-induced contraction of superfused lung parenchymal strip
rabbit platelets = assay: Ex vivo PAF Acether-induced rabbit PA after per os or IV administration; type: in vivo; conditions: for activity at 0.5 mg/kg / activity at 1 mg/kg / activity at 2 mg/kg: Oryctolagus cuniculus, Platelet, iv, read-out: PAF Acether-induced rabbit PA (% of control); for activity at 0.5 mg/kg: IV 0.5 mg/kg; for activity at 1 mg/kg: IV 1 mg/kg; for activity at 2 mg/kg: IV 2 mg/kg
Procedure: Drugs were administered per os (2,5 and 10 mg/kg) or by IV route (0.5, 1, 2 mg/kg) and blood samples were taken at different times to test platelet aggregation with PAF-Acether ([…]) (see following table wherein the figures appearing are the ratio to the control with the solvent used, i.e. DMSO).

[4] = 0.5 h, PAF Acether 2.5 nM, 0.5 h
[5] = 0.5 h, PAF Acether 5.0 nM, 0.5 h

## CC1C(=O)OC2C(O)C34C5CC(C(C)(C)C)C36C(OC(=O)C6O)OC4(C(=O)O5)C12O (centres unmarked) [Ginkgolide B]
Hartley guinea-pig; 5 minutes before PAF Acether 60 ng/kg IV, % of maximal bronchoconstriction, average of 10 animals
  % of bronchoconstriction: 6.2%
Hartley guinea-pig; vs solvent in the same batch
  % of inhibition (bronchoconstriction): 92.3%
[1]
  effect against aggregation induced by other known aggregants: totally ineffective
Human platelets; blood take at 0.5 h
  % of aggregation with respect to control: 0%
Human platelets; blood take at 1.0 h
  % of aggregation with respect to control: 3.4%
Rat portal vein; Rattus norvegicus, PAF Acether 10^-7 M, added 30 minutes before PAF Acether, read-out: IC50 (antagonism of PAF Acether-induced increase of the basal tonus)
  IC50: 6.8 µg/mL (≈ 16 µM)
Rat portal vein; isolated rat portal vein
  effect on the myogenic activity: without effect
PAF-Acether receptor; rabbit membrane platelet preparation
  IC50: 575 nM
PAF-Acether receptor; read-out: reduction of 3H-PAF Acether binding
  inhibition at 1 µM: 94%
[2]; PAF Acether 2.5 nM
  IC50: 1880 nM
[2]; PAF Acether 5 nM
  IC50: 3200 nM
Human PRP
  IC50: 56000 nM
thermal-injured patients
  clinical outcome in thermal-injured patients: faster recovery (decreased oedema, decreased plasma leakage and improvement of clinical outcome)
[3]; Cavia porcellus, read-out: change of PAF Acether (3 ng)-induced contraction
  inhibition at 30 µg/mL: 78.8%
[3]; preventive superfusion 30 μg/ml, average of 10 determinations
  Contraction induced by PAF Acether (3 ng) (Arbitrary Units): 8.05 ± 2.16 Arbitrary Units
Rabbit platelets; [4]
  activity at 0.5 mg/kg: 0%
  activity at 1 mg/kg: 0%
  activity at 2 mg/kg: 0%
Rabbit platelets; [5]
  activity at 0.5 mg/kg: 0%
  activity at 1 mg/kg: 0%
  activity at 2 mg/kg: 0%
Rabbit platelets; 1 h, PAF Acether 2.5 nM, 1 h
  activity at 0.5 mg/kg: 7.4%
  activity at 1 mg/kg: 0%
  activity at 2 mg/kg: 0%
Rabbit platelets; 1 h, PAF Acether 5.0 nM, 1 h
  activity at 0.5 mg/kg: 9.4%
  activity at 1 mg/kg: 1.1%
  activity at 2 mg/kg: 0%
Rabbit platelets; 2 h, PAF Acether 2.5 nM, 2 h
  activity at 0.5 mg/kg: 11.2%
  activity at 1 mg/kg: 4.1%
  activity at 2 mg/kg: 0%
Rabbit platelets; 2 h, PAF Acether 5.0 nM, 2 h
  activity at 0.5 mg/kg: 14.5%
  activity at 1 mg/kg: 7.2%
  activity at 2 mg/kg: 0%
Rabbit platelets; per os 2 mg/kg, PAF Acether 2.5 nM, 0.5 h
  PAF Acether-induced rabbit PA (% of control): 23%
Rabbit platelets; per os 2 mg/kg, PAF Acether 2.5 nM, 1 h
  PAF Acether-induced rabbit PA (% of control): 37%
Rabbit platelets; per os 2 mg/kg, PAF Acether 2.5 nM, 2 h
  PAF Acether-induced rabbit PA (% of control): 54%
Rabbit platelets; per os 2 mg/kg, PAF Acether 5.0 nM, 0.5 h
  PAF Acether-induced rabbit PA (% of control): 34.5%
Rabbit platelets; per os 2 mg/kg, PAF Acether 5.0 nM, 1 h
  PAF Acether-induced rabbit PA (% of control): 47.8%
Rabbit platelets; per os 2 mg/kg, PAF Acether 5.0 nM, 2 h
  PAF Acether-induced rabbit PA (% of control): 71.2%
Rabbit platelets; per os 5 mg/kg, PAF Acether 2.5 nM, 1 h
  PAF Acether-induced rabbit PA (% of control): 7%
Rabbit platelets; per os 5 mg/kg, PAF Acether 2.5 nM, 2 h
  PAF Acether-induced rabbit PA (% of control): 10%
Rabbit platelets; per os 5 mg/kg, PAF Acether 5.0 nM, 0.5 h
  PAF Acether-induced rabbit PA (% of control): 6%
Rabbit platelets; per os 5 mg/kg, PAF Acether 5.0 nM, 1 h
  PAF Acether-induced rabbit PA (% of control): 11.4%
Rabbit platelets; per os 5 mg/kg, PAF Acether 5.0 nM, 2 h
  PAF Acether-induced rabbit PA (% of control): 27.1%
